These molecules were tested against IDO1 (Homo sapiens, UniProt P14902) (assay: IDO1 Cellular Assay in HeLa Cells Stimulated with IFNγ). Conditions: IFNγ 100 ng/mL, 300 uM L-tryptophan, about 48 hours, fluorescence readout, read-out: IDO1 HELA Cell Assay, IC50.
Format: cell-based
Description: Biological Assays IDO1 Cellular Assay in HeLa Cells Stimulated with IFNγ
HeLa cells were cultured in complete HeLa culture medium (90% EMEM, 10% heat-inactivated fetal bovine serum) and expanded to about 1×10^9 cells. The cells were then collected and frozen down at 1×10^7 cells/vial in 1 mL frozen medium (90% complete HeLa culture medium, 10% DMSO).
Compounds to be tested were serially diluted in ten 3-fold steps in DMSO starting from 10 mM DMSO stocks in Echo low volume plate(s). Compound dilutions or DMSO alone were then dispensed from the dilution plate(s) into Greiner black 384-well assay plate(s) (catalog #781086, 50 nL/well) using an Echo 550 acoustic liquid handler (Labcyte).
Frozen HeLa cells were thawed and transferred into HeLa assay medium (99% complete HeLa culture medium, 1% Pen/Strep) with 20 mL medium/vial of cells. The cells were spun down at 250 g in a table top centrifuge for 5 min and suspended in same volume of HeLa assay medium. The cells were then counted and adjusted to a density of 2×10^5 cells/mL in HeLa assay medium. Sterile L-tryptophan were added to the cells with final concentration of 300 uM L-tryptophan. A small aliquot (2 mL/plate) of HeLa cells were set aside and were not treated with IFNγ, to serve as the Max-E control.
HeLa cells with and without IFNγ were dispensed to the respective wells of 384-well assay plates containing the compounds. The plates were incubated for about 48 hours at a 37° C., 5% CO2 incubator. Afterwards, 12 μL of 0.5 M methyl isonipecotate in dimethyl sulfoxide were added into each well and the plates were sealed and incubated at 37° C. without CO2 overnight. The plates were centrifuged for 1 min at 200×g. The resulting fluorescence was measured in a Spectramax plate reader (Molecular Devices) with a 400 nm excitation filter and a 510 nm emission filter.
The fluorescence intensity of each well was corrected for the background observed in wells with non-IFNγ-treated cells and was expressed as a fraction of the intensity observed in wells of IFNγ-treated cells and DMSO only. Potencies were calculated by linear least squares fit to the four parameter logistic IC50 equation.
Compounds disclosed herein generally have IC50 of about 0.1 nM to about 20,000 nM, or more specifically, about 1 nM to about 10,000 nM, or more specifically, about 5 nM to about 5,000 nM, or more specifically, about 10 nM to about 1,000 nM, or still more specifically, about 10 nM to about 500 nM.

Chain of IDO1 (P14902 whole entry): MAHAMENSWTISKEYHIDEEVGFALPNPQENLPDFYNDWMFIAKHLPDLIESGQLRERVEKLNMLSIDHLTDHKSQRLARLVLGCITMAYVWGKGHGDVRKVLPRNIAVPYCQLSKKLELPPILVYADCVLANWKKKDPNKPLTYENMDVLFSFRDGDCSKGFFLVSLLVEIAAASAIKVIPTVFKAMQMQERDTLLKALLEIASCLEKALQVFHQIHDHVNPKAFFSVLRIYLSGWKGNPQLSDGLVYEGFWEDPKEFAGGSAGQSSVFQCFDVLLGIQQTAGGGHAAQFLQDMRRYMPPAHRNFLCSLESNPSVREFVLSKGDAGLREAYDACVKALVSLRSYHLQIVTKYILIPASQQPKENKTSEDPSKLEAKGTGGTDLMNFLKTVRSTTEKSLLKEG

`C[C@@H]1CN(C(=O)c2nn(CC(=O)N3CCC(c4cccc5ccccc45)CC3)c3c2CCC3)C[C@H](C)O1` [Example 69, 2-{3-[(2R,6S)-2,6-dimethylmorpholine-4-carbonyl]-5,6-dihydrocyclopenta[c]pyrazol-1(4H)-yl}-1-[4-(naphthalen-1-yl)piperidin-1-yl]ethan-1-one] and `C[C@@H]1CN(C(=O)c2nn(CC(=O)N3CCC(c4cccc5c(F)cccc45)CC3)c3c2CCC3)C[C@H](C)O1` [Example 85, 2-{3-[(2R,6S)-2,6-dimethylmorpholine-4-carbonyl]-5,6-dihydrocyclopenta[c]pyrazol-1(4H)-yl}-1-[4-(5-fluoronaphthalen-1-yl)piperidin-1-yl]ethan-1-one] are within 1.5-fold of each other in IC50: 6.4 nM for the first, 5.3 nM for the second.

Compared with `C[C@@H]1CN(C(=O)c2nn(CC(=O)N3CCC(c4ccccc4)CC3)c3c2CCC3)C[C@H](C)O1` [Example 70, 2-{3-[(2R,6S)-2,6-dimethylmorpholine-4-carbonyl]-5,6-dihydrocyclopenta[c]pyrazol-1(4H)-yl}-1-(4-phenylpiperidin-1-yl)ethan-1-one], `C[C@@H]1CN(C(=O)c2nn(CC(=O)N3CCCC(c4ccccc4)CC3)c3c2CCC3)C[C@H](C)O1` (stereo partly drawn) [Example 74, 2-{3-[(2R,6S)-2,6-dimethylmorpholine-4-carbonyl]-5,6-dihydrocyclopenta[c]pyrazol-1(4H)-yl}-1-(4-phenylazepan-1-yl)ethan-1-one] is 2.1-fold higher in IC50: 79.4 nM for the first, 170 nM for the second.

`C[C@@H]1CN(C(=O)c2nn(CC(=O)N3CCC(c4ccccc4C(F)(F)F)CC3)c3c2CCC3)C[C@H](C)O1` [Example 71, 2-{3-[(2R,6S)-2,6-dimethylmorpholine-4-carbonyl]-5,6-dihydrocyclopenta[c]pyrazol-1(4H)-yl}-1-{4-[2-(trifluoromethyl)phenyl]piperidin-1-yl}ethan-1-one] and `C[C@@H]1CN(C(=O)c2nn(CC(=O)N3CCC(c4ccccc4C(F)(F)F)C3)c3c2CCC3)C[C@H](C)O1` (stereo partly drawn) [Example 73, 2-{3-[(2R,6S)-2,6-dimethylmorpholine-4-carbonyl]-5,6-dihydrocyclopenta[c]pyrazol-1(4H)-yl}-1-{3-[2-(trifluoromethyl)phenyl]pyrrolidin-1-yl}ethan-1-one] are within 1.5-fold of each other in IC50: 107 nM for the first, 152 nM for the second.

Going from `C[C@@H]1CN(C(=O)c2nn(CC(=O)N3CCC(c4ccccc4)C(F)(F)C3)c3c2CCC3)C[C@H](C)O1` (stereo partly drawn) [Example 72, 1-(3,3-difluoro-4-phenylpiperidin-1-yl)-2-{3-[(2R,6S)-2,6-dimethylmorpholine-4-carbonyl]-5,6-dihydrocyclopenta[c]pyrazol-1(4H)-yl}ethan-1-one] to `C[C@@H]1CN(C(=O)c2nn(CC(=O)N3CC[C@@H](c4ccccc4)[C@@H](C)C3)c3c2CCC3)C[C@H](C)O1` [Example 79, 2-{3-[(2R,6S)-2,6-dimethylmorpholine-4-carbonyl]-5,6-dihydrocyclopenta[c]pyrazol-1(4H)-yl}-1-[(3R,4R)-3-methyl-4-phenylpiperidin-1-yl]ethan-1-one], the IC50 rises from 144 nM to 354 nM (2.5-fold). The first is the more potent here.

Going from `COc1ccccc1C1CCN(C(=O)Cn2nc(C(=O)N3C[C@@H](C)O[C@@H](C)C3)c3c2CCC3)CC1` [Example 75, 2-{3-[(2R,6S)-2,6-dimethylmorpholine-4-carbonyl]-5,6-dihydrocyclopenta[c]pyrazol-1(4H)-yl}-1-[4-(2-methoxyphenyl)piperidin-1-yl]ethan-1-one] to `C[C@@H]1CN(C(=O)c2nn(CC(=O)N3CCC(c4cccc(Cl)c4Cl)CC3)c3c2CCC3)C[C@H](C)O1` [Example 87, 1-[4-(2,3-dichlorophenyl)piperidin-1-yl]-2-{3-[(2R,6S)-2,6-dimethylmorpholine-4-carbonyl]-5,6-dihydrocyclopenta[c]pyrazol-1(4H)-yl}ethan-1-one], the IC50 falls from 195 nM to 7.8 nM (25-fold).

Compared with `C[C@@H]1CN(C(=O)c2nn(CC(=O)N3CCC(c4ccc5ccccc5c4)CC3)c3c2CCC3)C[C@H](C)O1` [Example 76, 2-{3-[(2R,6S)-2,6-dimethylmorpholine-4-carbonyl]-5,6-dihydrocyclopenta[c]pyrazol-1(4H)-yl}-1-[4-(naphthalen-2-yl)piperidin-1-yl]ethan-1-one], `Cc1ccc(C2CCN(C(=O)Cn3nc(C(=O)N4C[C@@H](C)O[C@@H](C)C4)c4c3CCC4)CC2)cc1C` [Example 89, 2-{3-[(2R,6S)-2,6-dimethylmorpholine-4-carbonyl]-5,6-dihydrocyclopenta[c]pyrazol-1(4H)-yl}-1-[4-(3,4-dimethylphenyl)piperidin-1-yl]ethan-1-one] is 23-fold lower in IC50: 199 nM for the first, 8.8 nM for the second. The second is the more potent here.

`Cc1c(F)cccc1C1CCCN(C(=O)Cn2nc(C(=O)N3C[C@@H](C)O[C@@H](C)C3)c3c2CCC3)C1` (stereo partly drawn) [Example 77, 2-{3-[(2R,6S)-2,6-dimethylmorpholine-4-carbonyl]-5,6-dihydrocyclopenta[c]pyrazol-1(4H)-yl}-1-[3-(3-fluoro-2-methylphenyl)piperidin-1-yl] ethan-1-one] and `C[C@@H]1CN(C(=O)c2nn(CC(=O)N3CCC(c4ccccc4Cl)C3)c3c2CCC3)C[C@H](C)O1` (stereo partly drawn) [Example 78, 1-[3-(2-chlorophenyl)pyrrolidin-1-yl]-2-{3-[(2R,6S)-2,6-dimethylmorpholine-4-carbonyl]-5,6-dihydrocyclopenta[c]pyrazol-1(4H)-yl}ethan-1-one] are within 1.5-fold of each other in IC50: 233 nM for the first, 346 nM for the second.

Going from `Cc1ccnc(C2CCN(C(=O)Cn3nc(C(=O)N4C[C@@H](C)O[C@@H](C)C4)c4c3CCC4)CC2)c1C` [Example 80, 2-(3-(cis-2,6-dimethylmorpholine-4-carbonyl)-5,6-dihydrocyclopenta[c]pyrazol-1(4H)-yl)-1-(4-(3,4-dimethylpyridin-2-yl)piperidin-1-yl)ethan-1-one] to `Cc1ccc(C2CCN(C(=O)Cn3nc(C(=O)N4C[C@@H](C)O[C@@H](C)C4)c4c3CCC4)CC2)cc1F` [Example 91, 2-{3-[(2R,6S)-2,6-dimethylmorpholine-4-carbonyl]-5,6-dihydrocyclopenta[c]pyrazol-1(4H)-yl}-1-[4-(3-fluoro-4-methylphenyl)piperidin-1-yl]ethan-1-one], the IC50 falls from 74.2 nM to 11.9 nM (6.2-fold). The second is the more potent here.

Going from `C[C@@H]1CN(C(=O)c2nn(CC(=O)N3CCC(c4cccc5ccsc45)CC3)c3c2CCC3)C[C@H](C)O1` [Example 84, 1-[4-(benzothiophen-7-yl)-1-piperidyl]-2-[3-[(2S,6R)-2,6-dimethylmorpholine-4-carbonyl]-5,6-dihydro-4H-cyclopenta[c]pyrazol-2-ium-1-yl]ethanone;2,2,2-trifluoroacetate] to `C[C@@H]1CN(C(=O)c2nn(CC(=O)N3CCC(c4cccc5sccc45)CC3)c3c2CCC3)C[C@H](C)O1` [Example 88, 1-[4-(1-benzothiophen-4-yl)piperidin-1-yl]-2-{3-[(2R,6S)-2,6-dimethylmorpholine-4-carbonyl]-5,6-dihydrocyclopenta[c]pyrazol-1(4H)-yl}ethan-1-one], the IC50 rises from 4.7 nM to 8.3 nM (1.8-fold). The first is the more potent here.

Going from `C[C@@H]1CN(C(=O)c2nn(CC(=O)N3CCC(c4cccc5c4CCC5)CC3)c3c2CCC3)C[C@H](C)O1` [Example 86, 1-[4-(2,3-dihydro-1H-inden-4-yl)piperidin-1-yl]-2-{3-[(2R,6S)-2,6-dimethylmorpholine-4-carbonyl]-5,6-dihydrocyclopenta[c]pyrazol-1(4H)-yl}ethan-1-one] to `Cc1cc(F)ccc1C1CCN(C(=O)Cn2nc(C(=O)N3C[C@@H](C)O[C@@H](C)C3)c3c2CCC3)CC1` [Example 92, 2-{3-[(2R,6S)-2,6-dimethylmorpholine-4-carbonyl]-5,6-dihydrocyclopenta[c]pyrazol-1(4H)-yl}-1-[4-(4-fluoro-2-methylphenyl)piperidin-1-yl]ethan-1-one], the IC50 rises from 7.3 nM to 14.4 nM (2-fold).

Going from `Cc1cc(F)cc(C2CCN(C(=O)Cn3nc(C(=O)N4C[C@@H](C)O[C@@H](C)C4)c4c3CCC4)CC2)c1` [Example 90, 2-{3-[(2R,6S)-2,6-dimethylmorpholine-4-carbonyl]-5,6-dihydrocyclopenta[c]pyrazol-1(4H)-yl}-1-[4-(3-fluoro-5-methylphenyl)piperidin-1-yl]ethan-1-one] to `Cc1cc(C2CCN(C(=O)Cn3nc(C(=O)N4C[C@@H](C)O[C@@H](C)C4)c4c3CCC4)CC2)ccc1F` [Example 94, 2-{3-[(2R,6S)-2,6-dimethylmorpholine-4-carbonyl]-5,6-dihydrocyclopenta[c]pyrazol-1(4H)-yl}-1-[4-(4-fluoro-3-methylphenyl)piperidin-1-yl]ethan-1-one], the IC50 rises from 9.9 nM to 18.9 nM (1.9-fold). The first is the more potent here.

In the case of `C[C@@H]1CN(C(=O)c2nn(CC(=O)N3CCC(c4ccc5c(c4)CCO5)CC3)c3c2CCC3)C[C@H](C)O1` [Example 93, 1-[4-(2,3-dihydro-1-benzofuran-5-yl)piperidin-1-yl]-2-{3-[(2R,6S)-2,6-dimethylmorpholine-4-carbonyl]-5,6-dihydrocyclopenta[c]pyrazol-1(4H)-yl}ethan-1-one], the IC50 is reported as 17.8 nM.

Source: US12091405B2, “Substituted pyrazole compounds as indoleamine 2,3-dioxygenase inhibitors” (Merck Sharp & Dohme LLC, priority 2018, dated 2024)
